Laboratory results: patent US11472808B2, “Substituted pyrrolo[1,2-c]pyrimidines as hepatitis B antiviral agents” (Enanta Pharmaceuticals, Inc., priority 2019, dated 2022)

Each molecule was assayed on HBV (assay: HepAD38 anti-HBV assay: reduction of viral product accumulation (virion DNA qPCR, HBsAg/HBeAg ELISA)). Conditions: Hepatitis B virus, 120 h; HepAD38 cells; concentration reducing viral product accumulation by 50% relative to no drug controls; harvest five days after compound addition; read-out: HepAD38 EC50.
Assay type: cell-based
How it was run: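 Tetracycline-free HepAD38 cells treated 5 days with compound (1:200 DMSO dilution), or 8 days with media and compound refreshed on d2 and d5. Virion DNA quantified by qPCR; HBsAg or HBeAg by ELISA. EC50 is the concentration reducing viral product accumulation 50% versus no-drug controls.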
`COC(=O)Cc1cccc(S(=O)(=O)N[C@H]2CC3=C(c4ccn(C(F)F)n4)[C@H](c4ccc(F)cc4Cl)N=C(c4nccs4)N3C2)c1` [Example 31] showed an EC50 of less than 0.1 µM.
`OCC[C@@]1(F)CC2=C(c3ccn(C(F)F)n3)[C@H](c3ccc(F)cc3Cl)N=C(c3nccs3)N2C1` [Example 168] showed an EC50 of less than 0.1 µM.
Work on `O=C(N[C@H]1CC2=C(c3ccn(C(F)F)n3)[C@H](c3ccc(F)cc3Cl)N=C(c3nccs3)N2C1)C1CC1` [Example 236] yielded an EC50 of less than 0.1 µM.
`O=S(=O)(N[C@H]1CC2=C(c3ccn(C(F)F)n3)[C@H](c3ccc(F)cc3Cl)N=C(c3nccs3)N2C1)c1ccc2ncsc2c1` [Example 398] showed an EC50 of less than 0.1 µM.
`O=C(O)c1ccc(NC(=O)N2CCN([C@H]3CC4=C(c5ccn(C(F)F)n5)[C@H](c5ccc(F)cc5Cl)N=C(c5nccs5)N4C3)CC2)cc1` [Example 47] was tested, and the EC50 was greater than 0.4 µM.
Molecule `CCOC(=O)Cn1cc(S(=O)(=O)N[C@H]2CC3=C(c4ccn(C(F)F)n4)[C@H](c4ccc(F)cc4Cl)N=C(c4nccs4)N3C2)cn1` [Example 38] has an EC50 greater than 0.4 µM.
`O=S(=O)(NCc1cnccn1)N[C@H]1CC2=C(c3ccn(C(F)F)n3)[C@H](c3ccc(F)cc3Cl)N=C(c3nccs3)N2C1` [Example 317] gave an EC50 of less than 0.1 µM.
With `O=S(=O)(NCc1ccccn1)N[C@H]1CC2=C(c3ccn(C(F)F)n3)[C@H](c3ccc(F)cc3Cl)N=C(c3nccs3)N2C1` [Example 306] the EC50 was 0.1 to 0.4 µM.
`COC(=O)CC1CCN(C(=O)CC2CCN(CCS(=O)(=O)N[C@H]3CC4=C(c5ccn(C(F)F)n5)[C@H](c5ccc(F)cc5Cl)N=C(c5nccs5)N4C3)CC2)CC1` [Example 62] was tested, and the EC50 was less than 0.1 µM.
For `O=C(N[C@H]1CC2=C(c3ccn(C(F)F)n3)[C@H](c3ccc(F)cc3Cl)N=C(c3nccs3)N2C1)N1CCC(O)(c2nccs2)CC1` [Example 244], the EC50 was 0.1 to 0.4 µM.
`O=S(=O)(Nc1ccc(C(O)c2ccccn2)cc1)N[C@H]1CC2=C(c3ccn(C(F)F)n3)[C@H](c3ccc(F)cc3Cl)N=C(c3nccs3)N2C1` (stereo partly drawn) [Example 348] was tested, and the EC50 was less than 0.1 µM.
Molecule `OC/C=C/[C@]1(F)CC2=C(c3ccn(C(F)F)n3)[C@H](c3ccc(F)cc3Cl)N=C(c3nccs3)N2C1` [Example 174] has an EC50 of 0.1 to 0.4 µM.
Work on `O=C(O)c1ccc(Cl)c(S(=O)(=O)N[C@H]2CC3=C(c4ccn(C(F)F)n4)[C@H](c4ccc(F)cc4Cl)N=C(c4nccs4)N3C2)c1` [Example 27] yielded an EC50 of 0.1 to 0.4 µM.
With `COC[C@@]1(O)CC2=C(c3ccn(C(F)F)n3)[C@H](c3ccc(F)cc3Cl)N=C(c3nccs3)N2C1` [Example 106] the EC50 was greater than 0.4 µM.
For `O=S(=O)(NCc1nccs1)N[C@H]1CC2=C(c3ccn(C(F)F)n3)[C@H](c3ccc(F)cc3Cl)N=C(c3nccs3)N2C1` [Example 307], the EC50 was less than 0.1 µM.
Work on `COCCN(C)S(=O)(=O)N(C)[C@H]1CC2=C(c3ccn(C(F)F)n3)[C@H](c3ccc(F)cc3Cl)N=C(c3nccs3)N2C1` [Example 268] yielded an EC50 of less than 0.1 µM.
In the case of `O=C(N[C@H]1CC2=C(c3ccn(C(F)F)n3)[C@H](c3ccc(F)cc3Cl)N=C(c3nccs3)N2C1)N1CC[C@H](O)C1` [Example 224], the EC50 is reported as less than 0.1 µM.
In the case of `CC(C)CCS(=O)(=O)N[C@H]1CC2=C(c3ccn(C(F)F)n3)[C@H](c3ccc(F)cc3Cl)N=C(c3nccs3)N2C1` [Example 71], the EC50 is reported as 0.1 to 0.4 µM.
With `O=C(Nc1ccccn1)OCCCS(=O)(=O)N[C@H]1CC2=C(c3ccn(C(F)F)n3)[C@H](c3ccc(F)cc3Cl)N=C(c3nccs3)N2C1` [Example 327] the EC50 was less than 0.1 µM.
Molecule `O=S(=O)(N[C@H]1CC2=C(c3ccn(C(F)F)n3)[C@H](c3ccc(F)cc3Cl)N=C(c3nccs3)N2C1)N1CCC2(CC2)C1` [Example 286] has an EC50 of less than 0.1 µM.
`O=C(N[C@H]1CC2=C(c3ccn(C(F)F)n3)[C@H](c3ccc(F)cc3Cl)N=C(c3nccs3)N2C1)C1CC(O)C1` (stereo partly drawn) [Example 250] was tested, and the EC50 was 0.1 to 0.4 µM.
Molecule `COC(=O)c1ccc(S(=O)(=O)NCC2(F)CC3=C(c4ccn(C(F)F)n4)[C@H](c4ccc(F)cc4Cl)N=C(c4nccs4)N3C2)cc1` (stereo partly drawn) [Example 191] has an EC50 greater than 0.4 µM.
For `COC(=O)c1ccc(CS(=O)(=O)N[C@H]2CC3=C(c4ccn(C(F)F)n4)[C@H](c4ccc(F)cc4Cl)N=C(c4nccs4)N3C2)cc1` [Example 34], the EC50 was less than 0.1 µM.
With `O=S(=O)(NC1CCC1)N[C@H]1CC2=C(c3ccn(C(F)F)n3)[C@H](c3ccc(F)cc3Cl)N=C(c3nccs3)N2C1` [Example 415] the EC50 was less than 0.1 µM.
Work on `O=S(=O)(N[C@H]1CC2=C(c3ccn(C(F)F)n3)[C@H](c3ccc(F)cc3Cl)N=C(c3nccs3)N2C1)[C@H]1C[C@H]1c1ccccn1` [Example 391] yielded an EC50 of 0.1 to 0.4 µM.
`CC(=O)OCCCS(=O)(=O)N([C@H]1CC2=C(c3ccn(C(F)F)n3)[C@H](c3ccc(F)cc3Cl)N=C(c3nccs3)N2C1)S(=O)(=O)CCCOC(C)=O` [Example 311] showed an EC50 of less than 0.1 µM.
`Cn1cc(S(=O)(=O)N[C@H]2CC3=C(c4ccn(C(F)F)n4)[C@H](c4ccc(F)cc4Cl)N=C(c4nccs4)N3C2)cn1` [Example 404] was tested, and the EC50 was less than 0.1 µM.
`O=C(N[C@H]1CC2=C(c3ccn(C(F)F)n3)[C@H](c3ccc(F)cc3Cl)N=C(c3nccs3)N2C1)N1CCC(O)(c2ccccn2)CC1` [Example 243] showed an EC50 of 0.1 to 0.4 µM.
`COC(=O)c1ccccc1CS(=O)(=O)N[C@H]1CC2=C(c3ccn(C(F)F)n3)[C@H](c3ccc(F)cc3Cl)N=C(c3nccs3)N2C1` [Example 22] was tested, and the EC50 was 0.1 to 0.4 µM.
`Fc1ccc([C@@H]2N=C(c3nccs3)N3C[C@@H](Nc4ccccn4)CC3=C2c2ccn(C(F)F)n2)c(Cl)c1` [Example 418] gave an EC50 of 0.1 to 0.4 µM.
With `C=CS(=O)(=O)N([C@H]1CC2=C(c3ccn(C(F)F)n3)[C@H](c3ccc(F)cc3Cl)N=C(c3nccs3)N2C1)S(=O)(=O)C=C` [Example 51] the EC50 was greater than 0.4 µM.
Work on `COC(=O)c1cccc(S(=O)(=O)N[C@H]2CC3=C(c4ccn(C(F)F)n4)[C@H](c4ccc(F)cc4Cl)N=C(c4nccs4)N3C2)c1` [Example 2] yielded an EC50 of less than 0.1 µM.
`COC(=O)NC[C@]1(F)CC2=C(c3ccn(C(F)F)n3)[C@H](c3ccc(F)cc3Cl)N=C(c3nccs3)N2C1` [Example 185] showed an EC50 of 0.1 to 0.4 µM.
In the case of `O=C(N[C@H]1CC2=C(c3ccn(C(F)F)n3)[C@H](c3ccc(F)cc3Cl)N=C(c3nccs3)N2C1)N1CCC(O)(c2ncc[nH]2)CC1` [Example 247], the EC50 is reported as greater than 0.4 µM.
In the case of `O=C(N[C@H]1CC2=C(c3ccn(C(F)F)n3)[C@H](c3ccc(F)cc3Cl)N=C(c3nccs3)N2C1)[C@@H]1CC1c1ccccn1` (relative stereo) [Example 312], the EC50 is reported as 0.1 to 0.4 µM.
With `COC(=O)[C@H]1C[C@H](S(=O)(=O)N[C@H]2CC3=C(c4ccn(C(F)F)n4)[C@H](c4ccc(F)cc4Cl)N=C(c4nccs4)N3C2)C1` [Example 14] the EC50 was 0.1 to 0.4 µM.
With `O=C(N[C@H]1CC2=C(c3ccn(C(F)F)n3)[C@H](c3ccc(F)cc3Cl)N=C(c3nccs3)N2C1)c1cnccn1` [Example 233] the EC50 was less than 0.1 µM.
For `O/N=C/[C@@]1(F)CC2=C(c3ccn(C(F)F)n3)[C@H](c3ccc(F)cc3Cl)N=C(c3nccs3)N2C1` [Example 180], the EC50 was greater than 0.4 µM.
`CC(C)(O)[C@H]1CCCN1S(=O)(=O)N[C@H]1CC2=C(c3ccn(C(F)F)n3)[C@H](c3ccc(F)cc3Cl)N=C(c3nccs3)N2C1` [Example 284] gave an EC50 of less than 0.1 µM.
`O=C(N[C@H]1CC2=C(c3ccn(C(F)F)n3)[C@H](c3ccc(F)cc3Cl)N=C(c3nccs3)N2C1)N1CCC[C@H](O)C1` [Example 229] was tested, and the EC50 was 0.1 to 0.4 µM.
`O=C(O)C1CCN(CCS(=O)(=O)N[C@H]2CC3=C(c4ccn(C(F)F)n4)[C@H](c4ccc(F)cc4Cl)N=C(c4nccs4)N3C2)CC1` [Example 59] showed an EC50 of 0.1 to 0.4 µM.
`O=C(N[C@H]1CC2=C(c3ccn(C(F)F)n3)[C@H](c3ccc(F)cc3Cl)N=C(c3nccs3)N2C1)C1CCC(O)CC1` (stereo partly drawn) [Example 249] showed an EC50 of 0.1 to 0.4 µM.
`O=S(=O)(N[C@H]1CC2=C(c3ccn(C(F)F)n3)[C@H](c3ccc(F)cc3Cl)N=C(c3nccs3)N2C1)c1cccc(C(F)(F)F)c1` [Example 399] showed an EC50 of 0.1 to 0.4 µM.
With `O=S(=O)(N[C@H]1CC2=C(c3ccn(C(F)F)n3)[C@H](c3ccc(F)cc3Cl)N=C(c3nccs3)N2C1)N1C[C@@H](O)[C@@H](O)C1` [Example 103] the EC50 was less than 0.1 µM.
Work on `O[C@@]1(CNCc2ccccc2)CC2=C(c3ccn(C(F)F)n3)[C@H](c3ccc(F)cc3Cl)N=C(c3nccs3)N2C1` [Example 119] yielded an EC50 greater than 0.4 µM.
With `OC(c1c[nH]nn1)C1(F)CC2=C(c3ccn(C(F)F)n3)[C@H](c3ccc(F)cc3Cl)N=C(c3nccs3)N2C1` (stereo partly drawn) [Example 184] the EC50 was greater than 0.4 µM.
With `C[C@H](NC(=O)CC1(S(=O)(=O)N[C@H]2CC3=C(c4ccn(C(F)F)n4)[C@H](c4ccc(F)cc4Cl)N=C(c4nccs4)N3C2)CC1)c1ccccn1` [Example 374] the EC50 was less than 0.1 µM.
`O=C(N[C@H]1CC2=C(c3ccn(C(F)F)n3)[C@H](c3ccc(F)cc3Cl)N=C(c3nccs3)N2C1)N1CCC(O)(c2ccccc2)CC1` [Example 242] gave an EC50 of 0.1 to 0.4 µM.
`O=C(O)Cc1cccc(S(=O)(=O)N[C@H]2CC3=C(c4ccn(C(F)F)n4)[C@H](c4ccc(F)cc4Cl)N=C(c4nccs4)N3C2)c1` [Example 33] gave an EC50 of 0.1 to 0.4 µM.
With `CCC(=O)N[C@H]1CC2=C(c3ccn(C(F)F)n3)[C@H](c3ccc(F)cc3Cl)N=C(c3nccs3)N2C1` [Example 197] the EC50 was 0.1 to 0.4 µM.
For `O=Cc1cccc(S(=O)(=O)N[C@H]2CC3=C(c4ccn(C(F)F)n4)[C@H](c4ccc(F)cc4Cl)N=C(c4nccs4)N3C2)c1` [Example 333], the EC50 was less than 0.1 µM.
In the case of `CC1(NS(=O)(=O)N[C@H]2CC3=C(c4ccn(C(F)F)n4)[C@H](c4ccc(F)cc4Cl)N=C(c4nccs4)N3C2)CCC1` [Example 416], the EC50 is reported as less than 0.1 µM.
In the case of `COC(=O)CCCCS(=O)(=O)N[C@H]1CC2=C(c3ccn(C(F)F)n3)[C@H](c3ccc(F)cc3Cl)N=C(c3nccs3)N2C1` [Example 13], the EC50 is reported as 0.1 to 0.4 µM.
Work on `O=S(=O)(N[C@H]1CC2=C(c3ccn(C(F)F)n3)[C@H](c3ccc(F)cc3Cl)N=C(c3nccs3)N2C1)N1CC[C@H](F)C1` [Example 272] yielded an EC50 of less than 0.1 µM.
With `COCCOC[C@@]1(O)CC2=C(c3ccn(C(F)F)n3)[C@H](c3ccc(F)cc3Cl)N=C(c3nccs3)N2C1` [Example 112] the EC50 was greater than 0.4 µM.
`O=S(=O)(N[C@H]1CC2=C(c3ccn(C(F)F)n3)[C@H](c3ccc(F)cc3Cl)N=C(c3nccs3)N2C1)c1ccc(F)cc1` [Example 392] showed an EC50 of 0.1 to 0.4 µM.

Same assay, conditions: Hepatitis B virus, HePAD38, 120 h, read-out: HepAD38 EC50 (μM)
`O=C(N[C@H]1CC2=C(c3ccn(C(F)F)n3)[C@H](c3ccc(F)cc3Cl)N=C(c3nccs3)N2C1)Oc1ccccc1` [Example 200] was tested, and the EC50 was greater than 0.4 µM.
